The values that follow come from patent US20100184790A1, “PYRROLO[2,3-B]PYRIDINE COMPOUNDS, AZAINDOLE COMPOUNDS USED FOR SYNTHESIZING SAID PYRROLO[2,3-B]PYRIDINE COMPOUNDS, METHODS FOR THE PRODUCTION THEREOF, AND USES THEREOF” (CENTRE NATIONAL DE LA RECHERCHE SCIENTIFIQUE, priority 2007, published 2010).

One test concerns the target DYRK1A (Rattus norvegicus, UniProt Q63470). Nature of the test: DYRK1A kinase assay (myelin basic protein). In kind it is biochemical. The settings on record: 15 μM ATP, 30° C., myelin basic protein; read-out: IC50 DYRK1A.
A further test deals with SH-SY5Y cells. Nature of the test: Cell survival, MTS reduction, SH-SY5Y. In kind it is cell-based. The settings on record: Homo sapiens. On the procedure:
The human neuroblastoma cell line SH-SY5Y was grown in a DMEM medium with L-glutamine originating from Invitrogen (Cergy Pontoise, France), antibiotics and 10% by volume of FCS originating from Invitrogen. […] These compounds were also tested at various concentrations with regard to their effects on SH-SY5Y and HEK293 cells. […] The IC50 values were calculated from the dose-response curves and are given in micromoles (mean±standard deviation of two independent measurements carried out in triplicate). […] The survival of the cells was estimated by the assaying of the degree of reduction of MTS induced by this exposure. […] The ICS© values were calculated from dose-response curves and are given in micromoles in table 3 below.

The next test deals with T1, protein kinase hSGK1 (Homo sapiens, UniProt O00141).
T1 sequence (O00141 1-431): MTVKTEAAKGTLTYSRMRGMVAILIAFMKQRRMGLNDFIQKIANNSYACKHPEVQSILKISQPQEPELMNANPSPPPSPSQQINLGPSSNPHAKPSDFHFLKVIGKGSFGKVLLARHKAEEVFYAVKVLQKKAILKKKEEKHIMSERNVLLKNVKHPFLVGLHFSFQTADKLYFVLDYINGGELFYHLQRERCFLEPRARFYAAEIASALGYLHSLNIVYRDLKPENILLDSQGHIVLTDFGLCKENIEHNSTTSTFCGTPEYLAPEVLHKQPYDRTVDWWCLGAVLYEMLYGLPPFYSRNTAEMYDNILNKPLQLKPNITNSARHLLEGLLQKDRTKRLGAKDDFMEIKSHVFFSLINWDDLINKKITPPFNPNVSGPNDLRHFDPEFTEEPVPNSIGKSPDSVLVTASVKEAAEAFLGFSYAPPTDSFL
The settings on record: from Angew. Chem. Int. Ed., 2005, 44, 6951-6956; cited from earlier work.

A further test relates to Huh7 (hepatoma). Nature of the test: Cell survival, MTS reduction, Huh7. Format: cell-based. The note with it: Homo sapiens, Huh-7; forty eight hours after addition; read-out: Survival of the cells (IC50, μM) (MTS reduction) Huh7 (hepatoma). How it is done:
(§1) The viability of the cells was determined by measuring the reduction of 3-(4,5-dimethylthiazol-2-yl)-5-(3-carboxymethoxyphenyl)-2-(4-sulfophenyl)-2H/tetrazolium (MTS). The procedure was such as described in detail in Ribas J. et al., 2004, “Cell differentiation, caspase inhibition, and macromolecular synthesis blockage, but not BCL-2 or BCL-XL proteins, protect SH-SYS5 cells from apoptosis triggered by two CDK inhibitory drugs”, Exp. Cell Res., 2004, 195, 9-24.
(§2) The effects of meriolins 2 and 3 on the survival of various cell lines were also tested at various concentrations in order to determine their effects on eight different cell lines. The survival of the cells was expressed forty eight hours after the addition of each meriolin, using the MTS reduction test. The ICS© values were calculated from dose-response curves and are given in micromoles in table 3 below.
For orientation: Formazan colour is commonly taken as a measure of viable cells.

For the next test, the system named is F1 (hepatoma). Nature of the test: Cell survival, MTS reduction, F1. The note with it: forty eight hours after addition; read-out: Survival of the cells (IC50, μM) (MTS reduction) F1 (hepatoma). Format: cell-based. On the procedure: as §1, §2
In the next test the test system is MDA-MB-231 (breast). Nature of the test: Cell survival, MTS reduction, MDA-MB-231. Format: cell-based. The note with it: Homo sapiens, forty eight hours after addition, read-out: Survival of the cells (IC50, μM) (MTS reduction) MDA-MB-231 (breast). How it is done: as §1, §2
Another test concerns the target CDK1/cyclin B. Nature of the test: CDK1/cyclin B kinase assay (histone H1, [γ-33P]-ATP). The settings on record: read-out: IC50 CDK1/cyclin B, 15 μM ATP, 30° C.
The next test relates to PC3 (prostate). Nature of the test: Cell survival, MTS reduction, PC3. In kind it is cell-based. The note with it: forty eight hours after addition; read-out: Survival of the cells (IC50, μM) (MTS reduction) PC3 (prostate). On the procedure: as §1, §2
Test [1] relates to Human foreskin fibroblasts. Nature of the test: Cell survival, MTS reduction, human foreskin fibroblasts. Format: cell-based. The note with it: Fibroblast, forty eight hours after addition, read-out: Survival of the cells (IC50, μM) (MTS reduction) Human foreskin fibroblasts. On the procedure: as §1, §2
For another test, the target named is CK1δ/ε. Nature of the test: CK1δ/ε kinase assay (CK1-specific peptide). In kind it is biochemical, porcine. The settings on record: 15 μM ATP, 30° C. How it is done: CK1δ/ε was purified from porcine brain by affinity chromatography on an immobilized axin fragment. It was assayed as described for CDK1 but using a CK1-specific peptide substrate.
For a further test, the target named is GSK-3α/β. Nature of the test: GSK-3α/β kinase assay (GS-1 peptide). Format: biochemical, porcine. The settings on record: 15 μM ATP, 30° C. On the procedure: After incubating at 30° C. for 30 (thirty) minutes, the 25 μl aliquots of the supernatant were treated as described above.
Another test relates to HCT116 (colon). Nature of the test: Cell survival, MTS reduction, HCT116. Format: cell-based. The note with it: Homo sapiens, HCT-116; forty eight hours after addition; read-out: Survival of the cells (IC50, μM) (MTS reduction) HCT116 (colon). How it is done: as §1, §2
For test [2], the system named is HEK293 (embryonic kidney). Nature of the test: Cell survival, MTS reduction, HEK293. In kind it is cell-based. The note with it: Homo sapiens, forty eight hours after addition, read-out: Survival of the cells (IC50, μM) (MTS reduction) HEK293 (embryonic kidney). How it is done: The HEK293 cells were grown in an MEM medium with Glutamax originating from Invitrogen, antibiotics and 10% by volume of FCS.
as §1
The effects of meriolins 2 and 3 on the survival of various cell lines were also tested at various concentrations in order to determine their effects on eight different cell lines. […] The ICS© values were calculated from dose-response curves and are given in micromoles in table 3 below.

The test system of a further test is A4573 cells xenograft. Nature of the test: In vivo antitumor activity, A4573 xenograft. The settings on record: 50 mg/kg intraperitoneal once daily, versus control. Also noted: species or system athymic male nude mice. On the procedure: Athymic male nude mice (aged from 5 to 6 weeks) were obtained from the National Cancer Institute. The mice were housed in the animal facility of the Division of Comparative Medicine of Georgetown University. All the studies on the animals were carried out under protocols approved by the Animal Care and Use Committee of Georgetown University. The mice were inoculated by subcutaneous injection into the right posterior flank with 4×10^6 A4573 cells in 100 μl of Matrigel basic membrane matrix (Becton Dickinson). Xenografts were grown to a mean tumor volume of 129±30 mm^3. The compounds tested were first dissolved in either absolute methanol or DMSL (1 volume). A carrier solution was produced using a diluent containing 10% Tween 80, 20% N—N-dimethylacetamide and 70% polyethylene glycol 400 (Fisher Scientific, Pittsburgh, Pa.). The mice were randomly divided into two groups (six animals per group) and the treatment was initiated. […] At these times, the tumors were removed, measured and prepared for TUNEL assays. The primary tumor volumes were calculated by the formula V=(1/2)a×b^2, where a is the longest tumor axis and b is the shortest tumor axis. The values are given in the form of mean±standard deviation values in quantitative experiments. […]

[3] abbreviates: 8 h, Table 3, forty eight hours after addition, read-out: Survival of the cells (IC50, μM) (MTS reduction) SH-SY5Y (neuroblastoma).
Where [4] appears, read: Table 2, exposed for 24 hours, read-out: IC50 survival of SH-SY5Y cells (MTS reduction).

Structures are written as SMILES. Like-named read-outs stand apart in the source and are kept apart here.

Description for CDK1/cyclin B: Controls were prepared with appropriate dilutions of dimethyl sulfoxide.
After incubating at 30° C. for 30 minutes, 25 μl aliquots of the supernatant were spotted onto filters made of Whatman P81 phosphocellulose paper and, 20 seconds later, the filters were washed 5 times (for at least 5 (five) minutes each time) in a solution of 10 ml of phosphoric acid/liter of water. The wet filters were subjected to counting in the presence of an ACS scintillation fluid from Amersham.

Regarding `Nc1nccc(-c2c[nH]c3ncccc23)n1` [Meriolin 1, 3-[(2-amino)pyrimidin-4-yl]-1H-pyrrolo[2,3-b]pyridine, reference compound], the IC50 is 0.13 µM on DYRK1A; 0.67 µM with SH-SY5Y cells (24 h, read-out: IC50 survival of SH-SY5Y cells (MTS reduction)); 2.4 µM at protein kinase hSGK1.

Regarding `Nc1nccc(-c2c[nH]c3nccc(O)c23)n1` [Meriolin 2, 3-[(2-amino)pyrimidin-4-yl]-4-hydroxy-1H-pyrrolo[2,3-b]pyridine], the IC50 stood at 0.035 µM on DYRK1A; 1 µM in the test on Huh7 (hepatoma); 2 µM with F1 (hepatoma); 1.8 µM with MDA-MB-231 (breast); 0.057 µM at CDK1/cyclin B; 0.41 µM in the test on SH-SY5Y cells (setting [3]). In addition, the IC50 is 0.41 µM in the test on SH-SY5Y cells (setting [4]); 17.3 µM in the test on PC3 (prostate); 20 µM in test [1]; 0.05 µM at CK1δ/ε; 0.4 µM against GSK-3α/β; 0.08 µM with HCT116 (colon). Further, the IC50 in test [2] stood at 2.6 µM.

Turning to `COc1ccnc2[nH]cc(-c3ccnc(N)n3)c12` [Meriolin 3, 3-[(2-amino)pyrimidin-4-yl]-4-methoxy-1H-pyrrolo[2,3-b]pyridine], the IC50 at DYRK1A was found to be 0.029 µM; with Huh7 (hepatoma), 0.12 µM; in the test with F1 (hepatoma), 0.26 µM; in the test with MDA-MB-231 (breast) it was 19 µM; on CDK1/cyclin B, 0.17 µM; in the test on SH-SY5Y cells (setting [3]) it was 0.072 µM. In addition, the IC50 in the test with SH-SY5Y cells (setting [4]) came out at 0.073 µM; in the test with PC3 (prostate), 95 µM; in test [1] it was 8 µM; against CK1δ/ε, 0.2 µM; on GSK-3α/β it was 0.23 µM; in the test with HCT116 (colon) it was 0.94 µM. Besides, in [2], the IC50 was found to be 0.38 µM. In the test with A4573 cells xenograft, the “mean tumor volume over time (FIG. 3)” value is given as “only increases slightly over time”.
